Series [1] is described as follows: stability of crystal form. Type of series: physicochemical.
Series [2] can be described thus: bioavailability in animals. Type of series: in vivo.
Series [3] is described as follows: bioavailability in laboratory studies in dogs. Format: in vivo.
A short description of series [4]: water solubility. Format: physicochemical.
Series [5] is described as follows: hygroscopicity (weight gain in humid environment). Format: physicochemical.
Series [6] in a line: bioavailability in laboratory studies in rats. Format: in vivo.
The nature of series [7]: chemical stability. Format: physicochemical.

SMILES strings stand for the structures. Counter-ions that a name gives are not always drawn.

Regarding `CCCc1nc(Oc2ccc(Cl)cc2)ccc1-c1noc2cc(Cl)c(O[C@@H](C)C(=O)O)cc12` [Crystalline Free Acid Anhydrate, (2S)-2-({6-chloro-3-[6-(4-chlorophenoxy)-2-propylpyridin-3-yl]-1,2-benzisoxazol-5-yl}oxy)propanoic acid], the “stability with respect to retaining crystal form” value in series [1] is “stable with respect to retaining their crystal form”. Further, the bioavailability result in series [2], in series [3] and in series [6] was “good bioavailability” each time. Also, the water solubility entry in series [4] (native pH) is “very low water solubility”; in series [4] (neutral pH) it was “low water solubility”. Moreover, in series [5] (environment with up to 95% RH), the “weight gain when placed in humid environment” value was “about 0.2 wt %”.
For `CCCc1nc(Oc2ccc(Cl)cc2)ccc1-c1noc2cc(Cl)c(O[C@@H](C)C(=O)O)cc12` [benzenesulfonate salt], the hygroscopicity entry in series [5] is listed as “non-hygroscopic”. In series [7], the chemical stability entry was “chemically stable”. Further, the “chemical stability on storage” value in series [7] (8 months at 40° C. and 75% RH) was “remaining unchanged”.
